Laboratory results published in patent US20130274237A1, “COMPOSITION INCLUDING CHLOROPHYLL A AS AN ACTIVE INGREDIENT FOR PREVENTING AND TREATING TH2-MEDIATED IMMUNOLOGICAL DISEASES” (GWANGJU INSTITUTE OF SCIENCE AND TECHNOLOGY, priority 2009, published 2013).
Several values for one entry are separate records, joined by “and”; a condition that tells them apart may be missing. Equal values may be shown once.

What was measured:
[1] = tested on: IgE (Immunoglobulin E); experiment: IgE concentration in blood serum (ELISA); type: in vivo, NC/Nga mice; conditions: for IgE Average Concentration / IgE Group Average: blood serum; for IgE Average Concentration: individual specimen; for IgE Group Average: mean of 5 mice
Description: The blood collected in a mouse was left at room temperature for 30 minutes and then centrifuged at 3000 rpm for 20 minutes. The blood serum obtained therefrom was analyzed via ELISA kit (Shibayagi, Japan).

[2] = tested on: atopic dermatitis induced with DNCB in NC/Nga mice; experiment: Sensory evaluation (clinical visual skin score) in DNCB-induced atopic dermatitis; type: in vivo; design: key: total of five item scores, 0 = lowest, 15 = highest; conditions: scale 0-15; for Sensory Evaluation Score, group mean: mean of 5 mice; for Sensory Evaluation Score mean: mean of A and B; for Sensory Evaluation Score mean / Sensory Evaluation Score A / Sensory Evaluation Score B: individual mouse; for Sensory Evaluation Score A: scorer A; for Sensory Evaluation Score B: scorer B
Description: Sensory evaluation was performed using the general clinical visual method. The result of visual evaluation was indicated in terms of the total score obtained by adding each of the evaluation scores for the five items shown in the below table. The scoring for the level of dermatitis was performed by two or more persons experienced in this experiment under mutual agreement. The score was set from “0” point, the lowest, to “15” point, the highest (Table 2).

[3] = tested on: spleen; experiment: Measurement of spleen weight; type: in vivo, NC/Nga mice; conditions: for relative organ weight of spleen: group mean; for Absolute Comparison of Organs spleen wt. / Relative Comparison of Organs spleen: individual mouse; for Absolute Comparison of Organs spleen wt. mean S.D. / Relative Comparison of Organs spleen mean S.D.: mean of 5 mice
Description: The spleen of a sacrificed animal was ablated, removed of fat, and then measured of its weight. When the absolute organ weight of the spleen was compared with that of the positive control group (0.2576±0.043 g), the weight was lower in the order of test drug chlorophyll a 1 mg/kg group (0.1188±0.023 g), chlorophyll a 5 mg/kg group (0.1276±0.011 g), and 5 mg/kg drug control group (0.1376±0.025 g), and all of them were of significance at p<0.05, but were lower than that of the negative control group (0.1734±0.021 g) (FIG. 6).

[4] = tested on: skin tissues of atopy-induced NC/Nga mice; experiment: Histology: H & E biopsy score of skin; type: in vivo; conditions: for H & E biopsy score: group mean, acanthosis, hyperkeratosis, neutrophil infiltration, fibroblast hyperplasia, dermis each scored 1 to 3
Description: 4-7) Histology (H & E, Toluidine Blue Stain) • d. Skin tissues were fixed in 10% formalin for at least 24 hours, prepared into paraffin blocks, cut into pieces in the size of 4 μm, dyed with hematoxylin & eosin (Sigma, USA), and then dyed again with toluidine blue (Sigma, USA) for more accurate identification of inflammatory cells.
The evaluation standard for biopsy was calculated in an averaged score scale of 1 to 3 based on the status of acanthosis, hyperkeratosis, neutrophil infiltration, fibroblast hyperplasia, dermis, etc. […] Among them, a group treated with 1 mg/kg of chlorophyll a as a test drug was evaluated as being of significance (FIGS. 18-23).

[5] = Body weight of atopy-induced NC/Nga mice; conditions: DNCB atopy-induced NC/Nga mice, 1 mg/kg oral daily; for body weight: 1 mg/kg
Description: 20 fourteen-week old female NC/Nga mice (Central Lab. Animal Inc., Korea) with a body weight of about 20 g were used. The experimental animals were allowed to adapt for 7 days in the animal rooms before the experiment, and observed for general symptoms.
A test solution prepared by dissolving a mixture consisting of acetone and olive oil in 3:1 ratio in dinitrochlorobenzene (DNCB) to a concentration of about 1% to about 0.2% was coated on the skin of the NC/Nga mice to induce atopic dermatitis.
Body weight was measured twice from the time when the test material was administered.

C=Cc1c(C)c2cc3nc(c4c5[n-]c(cc6nc(cc1[n-]2)C(C)=C6CC)c(C)c5C(=O)[C@@H]4C(=O)OC)[C@@H](CCC(=O)OC/C=C(\C)CCC[C@H](C)CCC[C@H](C)CCCC(C)C)[C@@H]3C.[Mg+2] [chlorophyll a]
IgE Average Concentration ([1]; 1 mg/kg oral daily, 1 mg/kg): 104.198 ng/mL and 106.557 ng/mL and 166.675 ng/mL and 119.515 ng/mL and 149.499 ng/mL
IgE Group Average ([1]; 1 mg/kg oral daily, 1 mg/kg): 121.76 ± 15.58 ng/mL and 129.29 ± 27.60 ng/mL
IgE Average Concentration ([1]; 5 mg/kg oral daily, 5 mg/kg): 108.757 ng/mL and 115.652 ng/mL and 129.408 ng/mL and 88.578 ng/mL and 104.912 ng/mL
IgE Group Average ([1]; 5 mg/kg oral daily, 5 mg/kg): 109.46 ± 14.95 ng/mL
value of IgE ([1]; in words, dose not split): decreased
Sensory Evaluation Score, group mean ([2]; 1 mg/kg oral daily): 2.7±0.758 and 2.7
Sensory Evaluation Score mean ([2]; 1 mg/kg oral daily): 1.5 and 3 (2×) and 3.5 and 2.5
Sensory Evaluation Score A ([2]; 1 mg/kg oral daily): 2 (2×) and 3 (3×)
Sensory Evaluation Score B ([2]; 1 mg/kg oral daily): 1 and 4 (2×) and 2 and 3
Sensory Evaluation Score, group mean ([2]; 5 mg/kg oral daily): 2.7±1.789 and 2.7
Sensory Evaluation Score mean ([2]; 5 mg/kg oral daily): 5.5 and 1.5 (3×) and 3.5
Sensory Evaluation Score A ([2]; 5 mg/kg oral daily): 5 and 2 (3×) and 3
Sensory Evaluation Score B ([2]; 5 mg/kg oral daily): 6 and 1 (3×) and 4
relative organ weight of spleen ([3]; 1 mg/kg oral daily): 0.418 ± 0.211 g
Absolute Comparison of Organs spleen wt. ([3]; 1 mg/kg oral daily): 0.103 g and 0.114 g and 0.119 g and 0.1 g and 0.158 g
Relative Comparison of Organs spleen ([3]; 1 mg/kg oral daily): 0.355 g/body wt. (100 g) and 0.394 g/body wt. (100 g) and 0.433 g/body wt. (100 g) and 0.370 g/body wt. (100 g) and 0.537 g/body wt. (100 g)
Absolute Comparison of Organs spleen wt. mean S.D. ([3]; 1 mg/kg oral daily): 0.1188 ± 0.023 g
Relative Comparison of Organs spleen mean S.D. ([3]; 1 mg/kg oral daily): 0.418 ± 0.073 g/body wt. (100 g)
relative organ weight of spleen ([3]; 5 mg/kg oral daily): 0.446 ± 0.069 g
Absolute Comparison of Organs spleen wt. ([3]; 5 mg/kg oral daily): 0.144 g and 0.12 g and 0.133 g and 0.122 g and 0.119 g
Relative Comparison of Organs spleen ([3]; 5 mg/kg oral daily): 0.560 g/body wt. (100 g) and 0.383 g/body wt. (100 g) and 0.455 g/body wt. (100 g) and 0.414 g/body wt. (100 g) and 0.416 g/body wt. (100 g)
Absolute Comparison of Organs spleen wt. mean S.D. ([3]; 5 mg/kg oral daily): 0.1276 ± 0.011 g
Relative Comparison of Organs spleen mean S.D. ([3]; 5 mg/kg oral daily): 0.446 ± 0.069 g/body wt. (100 g)
absolute organ weight and relative organ weight of spleen compared with the negative control group ([3]; in words, dose not split): only a little difference
H & E biopsy score ([4]; 1 mg/kg oral daily): 4.6±0.55
tissue H&E reading: improvement in atopy symptom ([4]; 1 mg/kg oral daily, in words): the most improvement
H & E biopsy score ([4]; 5 mg/kg oral daily): 5±1.58
body weight ([5]; day 1, individual mouse): 25.6 g and 27.4 g and 24.5 g and 24 g and 26.1 g
body weight, group mean ([5]; day 1, mean of 5 mice): 25.52 g
body weight ([5]; day 3, individual mouse): 25.7 g and 27.6 g and 25.8 g and 25.5 g and 27.1 g
body weight, group mean ([5]; day 3, mean of 5 mice): 26.34 g
body weight ([5]; day 5, individual mouse): 27.3 g and 28.2 g and 26.5 g and 26 g and 27.8 g
body weight, group mean ([5]; day 5, mean of 5 mice): 27.16 g
body weight ([5]; day 7, individual mouse): 27.3 g and 27.6 g and 26.5 g and 24.7 g and 28.6 g
body weight, group mean ([5]; day 7, mean of 5 mice): 26.94 g
body weight ([5]; day 9, individual mouse): 28.4 g and 27.4 g and 25.8 g and 25.7 g and 27.7 g
